Source: patent publication US20100048462A1, “TRUNCATED PTH PEPTIDES WITH A CYCLIC CONFORMATION” (Zealand Pharma A/S, priority 2006, published 2010)
“Also recorded” adds a separate entry of the source. Bridge positions count the residues as written; N and C are the ends. Square brackets hold non-standard residues; d marks the D form. Peptide text beside a SMILES is read from it. I, II: the chains in the order shown. hArg = N=C(N)NCCCC[C@H](N)C(=O)O; Ac5c = NC1(C(=O)O)CCCC1; Aib = CC(C)(N)C(=O)O

Key:
CYP2D6 = CYP2D6 (Homo sapiens, UniProt P10635); experiment: CYP2D6 inhibition in pooled human liver microsomes; format: in vitro ADME; parameters: Pooled human liver microsomes (HLM, final concentration 0.05 mg protein/mL); tissue BD Biosciences 452161; host or cells: pooled human liver microsomes
Sequence of CYP2D6 (P10635 whole entry): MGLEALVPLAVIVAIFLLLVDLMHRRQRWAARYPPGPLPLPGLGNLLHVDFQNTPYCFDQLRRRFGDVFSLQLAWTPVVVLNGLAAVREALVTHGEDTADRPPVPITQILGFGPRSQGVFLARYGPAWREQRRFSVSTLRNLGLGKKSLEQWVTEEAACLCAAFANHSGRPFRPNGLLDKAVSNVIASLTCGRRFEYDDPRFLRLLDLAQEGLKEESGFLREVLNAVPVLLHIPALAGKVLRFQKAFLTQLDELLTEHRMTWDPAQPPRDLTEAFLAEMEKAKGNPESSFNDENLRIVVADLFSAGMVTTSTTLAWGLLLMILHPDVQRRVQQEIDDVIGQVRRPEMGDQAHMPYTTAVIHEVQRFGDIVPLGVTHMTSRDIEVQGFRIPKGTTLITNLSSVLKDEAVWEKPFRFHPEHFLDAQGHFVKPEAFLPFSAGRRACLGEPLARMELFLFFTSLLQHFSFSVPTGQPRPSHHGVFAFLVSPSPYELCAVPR
In short: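 Pooled HLM (0.05 mg/mL) in 0.1 M KPi pH 7.4 with 5 μM dextromethorphan and 10 μM test compound, preincubated 5 min at 37 °C, then started with NADPH-regenerating system for 5 min. Dextrorphan quantified by LC/MS/MS; activity expressed as % of vehicle; <70% considered significant.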

ovariectomized (OVX) rat = experiment: OVX rat model, bone mineral density by DEXA; format: in vivo; parameters: increase in BMD in the femoral shaft compared to vehicle-treated OVX animals: unit not given here; conditions: for BMD proximal tibia (18% bone loss in OVX animals): FIG. 6, SEQ ID NO: 19 20-320, SEQ ID NO: 33 5 nmol/kg; for BMD proximal tibia (18% bone loss in OVX animals) / BMD in lumbar vertebrae L1-L2 relative to vehicle-treated OVX and sham animals: s.c. 6 weeks; for BMD in lumbar vertebrae L1-L2 relative to vehicle-treated OVX and sham animals: FIG. 7; for BMD compared to vehicle-treated OVX animals: all doses; for increase in BMD in the femoral shaft compared to vehicle-treated OVX animals / BMD in the femoral shaft: FIG. 9; for BMD in the femoral shaft: site rich in cortical bone
Source text: The ovariectomiced(OVX) rat may be used to test the effect of the PTH analogues on osteopenia/osteoporosis in vivo. The OVX rat develop osteopenia due to ovarian hormone deficiency. Osteopenia can be detected as early as 14 days post OVX, increase for the next 100 days and then stabilized (Wronski T J et al., Calcif. Tissue Int., 43(3): 179-183, 1988). The OVX rat model is considered the “golden standard” by both authorities and industry as a model for osteoporosis (Peter C, Rodan G A. Preclinical safety profile of alendronate. Int j Clin Pract Suppl 1999; 101:3-8, and Stewart A F, Cain R L, Burr D B, Jacob D, Turner C H, Hock J M).
One hundred and seventy-eight female Fisher rats were used for the experiment. Initially the animals were housed in Macrolon type 3 cages (2 rats/cage) under controlled conditions (20° C., 55-85% humidity) following a 12:12-hrs light/dark cycle with light on at 6 am. The animals were fed ad libitum with standard Altromin No. 1324 diet (Chr. Petersen, Ringsted, Denmark). The animals had free access to drinking water (domestic quality tap water added citric acid to pH≈3). At the time of inclusion the animals were 6 months old.
The week before OVX the animals were stratified according to body weight into two groups that were subjected to either OVX (140 animals) or sham operation (38 animals). Rats were anaesthetized with Hypnorm-Dormicum and the ovariectomy was performed through a midline laparotomy. Sham-operated animals were subjected to midline laparotomy, and the ovaries were exposed but not removed (sham). This group served as an age matched non-osteoporotic control group. A microchip was implanted into each rat during surgery, in order to allow identification of the animals.
To allow osteopenia to develop before treatment start, animals were housed for 7 weeks (pre-treatment period) without pharmacological treatment. At the end of the pre-treatment period, sham- and OVX-operated rats were stratified according to bodyweight and divided into six groups of 13-20 animals each (Table 7). At this point, one OVX group (N=20) and one sham group (N=20) were sacrificed. These control groups established baseline levels of bone mineral density (BMD). Furthermore, samples were stored for possible later analysis of bone markers, bone strength, histomorphometry and μCT scans.
For the following 6 weeks one sham group and one OVX group were subjected to vehicle administration (40 mM sodium acetate, 45 mM histidine and 3.9% mannitol, pH 5.5, 300 mOsm/kg). Five OVX groups were treated with increasing doses of the cyclic PTH(1-17) analogue SEQ ID NO: 19. Another OVX group was treated with SEQ ID NO: 33 (Table 7). All drugs were given as s.c. injections. After 6 weeks of treatment the animals were sacrificed. Spine, tibia and femur were collected for analysis of BMD by DEXA-scan and bone samples were stored for later bone strength measurements.
Lumbar vertebrae (L4-L5-L6-S1), left femur and tibia were collected, cleaned, packed in saline moistened gaze in a tube and stored at −20° C. for later ex vivo bone strength measurements. Right femur and tibia as well as lumbar vertebrae (T13-L1-L2-L3) and caudal vertebrae (S2-S3-C1-C2-C3) were collected, cleaned and stored in 70% ethanol for analysis of bone mineral density (BMD) and possible later histomorphometry and/or μCT scanning.
Ex vivo BMD measurements were performed at the end of the study using a Lunar Piximus II densitometer (GE Healthcare, Chalfont St. Giles, UK) with a precision of 1.5%. Calibration of the instrument was performed with an aluminium/Lucite phantom.
Tibiae, femora and lumbar (L1-L2) and sacral/caudal (S3-C1) spine fragments were placed on the imaging positioning tray and scanned four times. All specimens were placed in a similar orientation for correct comparison. Regions of interest (ROI) were generated on the scans using the Piximus image analysis software provided with the instrument. […]

Row | Compound | effect on CYP2D6 activity in words (CYP2D6) | CYP2D6 activity (% of vehicle) (CYP2D6; 10 μM compound, dextrorphan formation rate) | bone mineral densities at the lowest dose (ovariectomized (OVX) rat; 20 nmol/kg/d) | bone mineral density versus vehicle-treated ovariectomized rats, regardless of site (ovariectomized (OVX) rat; 20 nmol/kg/d to 320 nmol/kg/d s.c., 6 weeks) | BMD proximal tibia (18% bone loss in OVX animals) (ovariectomized (OVX) rat; OVX rats) | BMD in lumbar vertebrae L1-L2 relative to vehicle-treated OVX and sham animals (ovariectomized (OVX) rat; OVX rats) | BMD compared to vehicle-treated OVX animals (ovariectomized (OVX) rat; FIG. 8) | BMD over sham control levels (ovariectomized (OVX) rat; FIG. 8, doses higher than 20 nmol/kg/d) | increase in BMD in the femoral shaft compared to vehicle-treated OVX animals (ovariectomized (OVX) rat) | BMD in the femoral shaft (ovariectomized (OVX) rat) | bone-anabolic activity in cortical and trabecular bone (ovariectomized (OVX) rat; OVX rats) | bone mineral density versus vehicle-treated sham-operated rats (ovariectomized (OVX) rat; doses greater than 20 nmol/kg/d) | bone mineral density versus vehicle-treated ovariectomized rats, all sites tested (ovariectomized (OVX) rat; 5 nmol/kg/d s.c., 6 weeks)
1 | CC[C@H](C)[C@H](NC(=O)[C@H](CCC(=O)O)NC(=O)C(C)(C)NC(=O)[C@@H](NC(=O)C1(N)CCCC1)C(C)C)C(=O)N[C@@H](CCC(N)=O)C(=O)N[C@@H](CC(C)C)C(=O)N[C@@H](CC(C)C)C(=O)N[C@@H](Cc1c[nH]cn1)C(=O)N[C@@H](CCC(N)=O)C(=O)N[C@@H](CCCCNC(=N)N)C(=O)N[C@@H](C)C(=O)N[C@H]1CCCCNC(=O)C[C@@H](C(N)=O)NC(=O)[C@H](CC(N)=O)NC(=O)[C@H](CC(C)C)NC(=O)[C@H](Cc2c[nH]c3ccccc23)NC1=O [SEQ ID NO: 19, H-Ac5c-Val-Aib-Glu-Ile-Gln-Leu-Leu-His-Gln-Har-Ala-Lys( )-Trp-Leu-Asn-Asp( )-NH2] (H-[Ac5c]V[Aib]EIQLLHQ[hArg]AKWLND-NH2; lactam 13-17) | absence of any inhibitory effect on CYP2D6 activity | 90 % of vehicle | at least normalization | significantly higher bone mineral density | completely reversed | improved | significantly increased | significantly increased over sham control levels | about 81 | improved | showed bone-anabolic activity | bone mineral densities higher than in vehicle-treated sham-operated rats | 
2 | CC[C@H](C)[C@H](NC(=O)[C@H](CCC(=O)O)NC(=O)C(C)(C)NC(=O)[C@@H](NC(=O)C1(N)CCCC1)C(C)C)C(=O)N[C@@H](CCC(N)=O)C(=O)N[C@@H](CC(C)C)C(=O)N[C@@H](CCSC)C(=O)N[C@@H](Cc1c[nH]cn1)C(=O)N[C@@H](CCC(N)=O)C(=O)N[C@@H](CCCCNC(=N)N)C(=O)N[C@@H](C)C(=O)N[C@H]1CCCCNC(=O)C[C@@H](C(N)=O)NC(=O)[C@H](CC(C)C)NC(=O)[C@H](Cc2c[nH]c3ccccc23)NC(=O)[C@@H](NC(=O)[C@H](C)NC(=O)[C@H](CCCCNC(=N)N)NC(=O)[C@H](CCC(N)=O)NC(=O)[C@H](Cc2c[nH]cn2)NC(=O)[C@H](CCSC)NC(=O)[C@H](CC(C)C)NC(=O)[C@H](CCC(N)=O)NC(=O)[C@@H](NC(=O)[C@H](CCC(=O)O)NC(=O)C(C)(C)NC(=O)[C@@H](NC(=O)C2(N)CCCC2)C(C)C)[C@@H](C)CC)CCCCNC(=O)C[C@@H](C(N)=O)NC(=O)[C@H](CC(C)C)NC(=O)[C@H](Cc2c[nH]c3ccccc23)NC1=O [SEQ ID NO: 33, (H-Ac5c-Val-Aib-Glu-Ile-Gln-Leu-Met-His-Gln-Har-Ala-Lys( )-Trp-Leu-Asp( )-NH2)2] (I: H-[Ac5c]V[Aib]EIQLMHQ[hArg]AKWLD-NH2 / II: H-[Ac5c]V[Aib]EIQLMHQ[hArg]AKWLD-NH2; amide I:13-II:16, I:16-II:13 (inferred)) |  |  |  |  | completely reversed | improved | significantly increased |  | about 81 | improved |  |  | significant increases; also recorded: significantly increased
